In US20100035984A1, “Use of an antibacterial compound which is derived from alliaceae, as a natural additive in animal feed” (DMC Research Center, S.L., priority 2006, published 2010):
Several values for one entry are separate records, joined by “and”; a condition that tells them apart may be missing. Equal values may be shown once. Marks after values point to notes of the source that are not given here.

Assays:
Format in all cases: cell-based
lactobacilli = experiment: In vitro fermentation of pig feces, lactobacilli count (Example 2); conditions: 200 mg/L, 24 hours
Protocol: (§1) The mean values affected by different indexes indicate significant differences (p<0.05). The vertical axis of the graph determines the log 10(cfu/g feces) and the horizontal axis determines the compound. The described assays are carried out using complete bacterial inocula obtained from feces of piglets in post-weaning stage. Two of the compounds (referenced as PTS and as PTSO) are assayed in a lower dose range (50-400 mg/L).

[1] = tested on: ruminal fermentation (methane-producing microorganisms); experiment: Production of gas by in vitro fermentation of the diets (Example 4)
Protocol: The effect of different doses of the compounds object of study on the production of gas promoted by in vitro fermentation for 24 and 48 hours of the diets the composition of which is included in Table 1 is studied.

bifidobacteria = experiment: In vitro fermentation of pig feces, bifidobacteria count (Example 2); conditions: 200 mg/L, 24 hours
Protocol: as §1

[2] = tested on: microbiota of the ruminal inoculum (ruminal fluid of goats); experiment: In vitro ruminal degradation of experimental diets (Example 3); conditions: for DDM (degradability of dry matter), mean / DOM (degradability of organic matter), mean: 48 hours
Protocol: The Effect of Different Doses of the Compounds Object of Study on the Ruminal Degradation of Two Different Diets the Composition of which is in Table 1 is Studied The diets consist of alfalfa hay (standard maintenance diet for ruminant animals) or of a mixture of 50% alfalfa hay and a commercial concentrate (standard lactation diet for ruminant animals). In vitro incubation is performed using ruminal fluid of goats as inoculum.

[3] = tested on: total anaerobes, total aerobes, enterobacteria, coliform bacteria, bacteroides, clostridia, lactobacilli and bifidobacteria; experiment: In vitro fermentation of pig feces inoculum, counts of all bacterial groups (Example 1); conditions: 50 to 2000 mg/L in culture medium, 24 hours in vitro fermentation, inocula from piglet feces
Protocol: FIG. 1 is a graph relating to Example 1 (study of the porcine digestive microbial composition) showing the effect of different concentrations of the compound PTSO after 24 hours of in vitro fermentation on the total anaerobic bacteria, total aerobic bacteria, enterobacteria, coliform bacteria, bacteroides, clostridia, lactobacilli and bifidobacteria count present in pig feces. The vertical axis of the graph determines the log 10(cfu/g feces) and the horizontal axis determines the bacterial group.
The described assays are carried out using complete bacterial inocula obtained from feces of piglets in post-weaning stage.

[4] = Alfalfa hay + concentrate, 10 ppm
[5] = Alfalfa hay + concentrate, 25 ppm
[6] = Alfalfa hay + concentrate, 50 ppm
[7] = Alfalfa hay + concentrate, 300 ppm
[8] = Alfalfa hay + concentrate, 750 ppm
[9] = Alfalfa hay + concentrate, 1000 ppm
[10] = Alfalfa hay + concentrate, 2000 ppm
[11] = diet D1, 48 hours, 10 ppm, replicates
[12] = diet D1, 48 hours, 25 ppm, replicates
[13] = diet D1, 48 hours, concentration 50, replicates
[14] = diet D1, 48 hours, concentration 300, replicates
[15] = diet D1, 48 hours, concentration 750, replicates
[16] = diet D1, 48 hours, concentration 1000, replicates
[17] = diet D2, 48 hours, 10 ppm, replicates
[18] = diet D2, 48 hours, 25 ppm, replicates
[19] = diet D2, 48 hours, concentration 50, replicates
[20] = diet D2, 48 hours, concentration 300, replicates
[21] = diet D2, 48 hours, concentration 750, replicates
[22] = diet D2, 48 hours, concentration 1000, replicates
[23] = diet D2, 48 hours, concentration 2000, replicates

With propyl propylthiosulfonate [PTSO] the “lactobacilli logarithmic reduction in the population” value (lactobacilli) was “approximately 50%”, the “inhibitory effect on production of fermentation gas, dependence on dose” value [1] was “dose-dependent” and the “inhibitory effect on production of fermentation gas, dependence on time” value ([1]; 24 and 48 hours) was “time-dependent”. The “doses at which the inhibitory effect on production of fermentation gas is observed” value ([1]; diet D2) was 10 ppm, the “bifidobacteria logarithmic reduction in the population” value (bifidobacteria) was “approximately 50%” and the “DDM (degradability of dry matter), mean” value [2, 4] was 63.4^a. The “DOM (degradability of organic matter), mean” value (shortened to “DOM … mean”) [2, 4] was 63.8^a, the “DDM (degradability of dry matter), mean” value [2, 5] was 62.5^a and the “DOM … mean” value [2, 5] was 60.6^a. The “DDM (degradability of dry matter), mean” value [2, 6] was 61.1^a, the “DOM … mean” value [2, 6] was 63.5^a and the “DDM (degradability of dry matter), mean” value [2, 7] was 45.2^b. For the same substance, the “DOM … mean” value [2, 7] was 44.7^b, the “DDM (degradability of dry matter), mean” value [2, 8] was 38.1^c and the “DOM … mean” value [2, 8] was 37.4^c. For the same substance, the “DDM (degradability of dry matter), mean” value [2, 9] was 37.2^c, the “DOM … mean” value [2, 9] was 36.0^c and the “DDM (degradability of dry matter), mean” value [2, 10] was 36.7^c. For the same substance, the “DOM … mean” value [2, 10] was 32.3^c, the “DDM (degradability of dry matter), mean” value ([2]; Alfalfa hay, 10 ppm) was 55.5^a and the “DOM … mean” value ([2]; Alfalfa hay, 10 ppm) was 48.4^ab. For the same substance, the “DDM (degradability of dry matter), mean” value ([2]; Alfalfa hay, 25 ppm) was 54.5^a, the “DOM … mean” value ([2]; Alfalfa hay, 25 ppm) was 53.2^ab and the “DDM (degradability of dry matter), mean” value ([2]; Alfalfa hay, 50 ppm) was 45.6^b. The “DOM … mean” value ([2]; Alfalfa hay, 50 ppm) was 45.9^b, the “DDM (degradability of dry matter), mean” value ([2]; Alfalfa hay, 300 ppm) was 36.2^c and the “DOM … mean” value ([2]; Alfalfa hay, 300 ppm) was 35.5^c. For the same substance, the “DDM (degradability of dry matter), mean” value ([2]; Alfalfa hay, 750 ppm) was 30.4^d, the “DOM … mean” value ([2]; Alfalfa hay, 750 ppm) was 29.9^c and the “DDM (degradability of dry matter), mean” value ([2]; Alfalfa hay, 1000 ppm) was 34.5^c. The “DOM … mean” value ([2]; Alfalfa hay, 1000 ppm) was 33.7^c, the “DDM (degradability of dry matter), mean” value ([2]; Alfalfa hay, 2000 ppm) was 30.3^d and the “DOM … mean” value ([2]; Alfalfa hay, 2000 ppm) was 29.0^c. For the same substance, the “Mean DDM” value ([2]; Table 3: diet D1, 48 hours, 2000 ppm) was 31.6%, the “DDM (degradation of dry matter)” value ([2]; Table 3: diet D1, 48 hours, 2000 ppm, replicates) was 30.9% and 30.2% and 32.0% and 31.4% and 32.2% and 32.7% and the DDM ([2]; Table 4: diet D1, 48 hours, concentration 2000, replicates) was 31.9% and 28.7%. For the same substance, the “effect on degradation of dry matter and organic matter” value ([2]; diet D1, 2000 ppm, 48 hours in vitro incubation) was “higher reduction”, the DDM [2, 11] was 54.9% and 56.1% and the DOM [2, 11] was 45.0% and 51.8%. For the same substance, the DDM [2, 12] was 54.1% and 55.0%, the DOM [2, 12] was 52.9% and 53.6% and the DDM [2, 13] was 45.5% and 45.7%. For the same substance, the DOM [2, 13] was 46.0% and 45.7%, the DDM [2, 14] was 36.6% and 35.8% and the DOM [2, 14] was 36.2% and 34.9%. The DDM [2, 15] was 31.0% and 29.9%, the DOM [2, 15] was 30.2% and 29.6% and the DDM [2, 16] was 33.4% and 35.6%. The DOM [2, 16] was 32.6% and 34.7%, the DOM ([2]; diet D1, 48 hours, concentration 2000, replicates) was 30.6% and 27.5% and the DDM [2, 17] was 63.1% and 63.7%. The DOM [2, 17] was 63.2% and 64.3%, the DDM [2, 18] was 62.4% and 62.7% and the DOM [2, 18] was 58.4% and 62.8%. For the same substance, the DDM [2, 19] was 61.1% and 63.9%, the DOM [2, 19] was 62.2% and 64.8% and the DDM [2, 20] was 44.4% and 46.0%. For the same substance, the DOM [2, 20] was 43.7% and 45.6%, the DDM [2, 21] was 39.9% and 36.3% and the DOM [2, 21] was 39.0% and 35.8%. For the same substance, the DDM [2, 22] was 35.9% and 38.4%, the DOM [2, 22] was 34.8% and 37.3% and the DDM [2, 23] was 37.1% and 36.3%. For the same substance, the DOM [2, 23] was 32.7% and 32.0% and the “growth of the bacterial groups studied” value [3] was “inhibited the growth of all the bacterial groups studied”.
